{
  "source": "patent US20070038384A1",
  "about": "“Devices and assays for monitoring/measuring cellular dynamics to create subject profiles from primary cells” (priority 2003, published 2007)",
  "assay_type_in_all_cases": "cell-based",
  "key": {"[1]": {"tested_on": "MS1 (T antigen-immortalized endothelial cells)", "assay": "Farnesyl transferase inhibition, cell motility assay in MS1", "details": "FTI-277 10 mm, time zero and four hours, versus control", "experimental": "(§1) Using standard protocols, MS1 (T antigen-immortalized endothelial cells, ATCC) and SVR (H-ras-overexpressing derivative of MS1, ATCC) were plated into macrowells at densities of 12×10^3 and 6×10^3 cells/cm^2, respectively, in DMEM/5% fetal bovine serum. Unattached cells were washed off after 1 hour, and the cells were replenished with fresh media. To the media was also added farnesyl transferase inhibitor (FTI-277, Calbiochem) to concentration of […]. Cells were cultured overnight under fresh media in an incubator at 37° C. and 5% CO2. At the start of experiment, the stencil/first layer was removed after first on the support to allow cell migration. At different time points (time zero and time four hours) images were taken and analyzed for effects of FTI-277 on cell motility. FIG. 21 contains the pictorial results of an assay showing farnesyl transferase inhibition in MS1 and SVR cells."}, "[2]": {"tested_on": "SVR (H-ras-overexpressing derivative of MS1)", "assay": "Farnesyl transferase inhibition, cell motility assay in SVR", "details": "SVR cells, FTI-277 10 mm, time zero and four hours, versus control", "experimental": "as §1"}, "[3]": {"tested_on": "HK-2 (proximal tubule cells from human kidney)", "assay": "Inhibition of cell motility of renal cells via MMP inhibition, HK-2", "details": "HK-2, various concentrations", "experimental": "(§2) Two renal cell lines were used to study the effect of matrix metalloproteinase (MMP) inhibition on cell motility. Standard protocols were used to plate 100 769-P cells (renal carcinoma, purchased from ATCC) and HK-2 (proximal tubule cells from human kidney, from ATCC) in qualitative cell migration assay plate.\n(§3) After allowing the cells to attach and spread for 8 hours, the stencil and the first layer were removed and MMP inhibitor (GM6001, Calbiochem) was added at various concentrations."}, "[4]": {"tested_on": "769-P cells (renal carcinoma)", "assay": "Inhibition of cell motility of renal cells via MMP inhibition, 769-P", "details": "various concentrations", "experimental": "as §2, §3"}, "endothelial cells": {"tested_on": "endothelial cells", "assay": "Cell motility assay using endothelial cells with agonists and antagonists (FIG. 25)", "details": "FIG. 25A", "experimental": "FIG. 25 depicts a particular cell motility assay using endothelial cells and agonists and antagonists of such cells. […] In FIG. 25B, the concentration of VEGF is fixed. An antibody to VEGF is added in various concentrations. […] When an inhibitor to the VEGF receptor is added, the cells migrate at a such slower rate as depicted in FIG. 25C. […] Normally enzyme inhibition screens involve proteins and their substrates and not cells. FIG. 25D depicts enzyme inhibition screens in a cell based context."}, "[5]": {"tested_on": "Human microvasular endothelial cells from lung (HMVEC-L)", "assay": "Microtubule experiments, cell motility/patterning assay", "details": "circular micro-orifice, versus control; agents 10 mg/ml in Example 8", "experimental": "Alternatively, the test agent can be added before the cells have grown to confluency, i.e. the test agent is added to the cells before being patterned through the micro-orifices 300. If the test agent has no effect on cell motility, the cells will spread and achieve the shape of the micro-orifice 300. In FIGS. 16 and 17, a micro-orifice 300 is circular in shape. In the left column of FIGS. 16 and 17 are the control panel, which illustrate the cells having grown to a confluent circular pattern.\nA first layer 150 having multiple orifices was applied to a support 140. The orifices ([…]) were rendered inert to the adsorption of proteins and the adhesion of cells using the standard procedures described in earlier disclosures: silanes terminated with ethylene glycol groups were reacted covalently with the surface of the PDMS devices. The stencil was washed three times with PBS, and vacuum was applied for two minutes to remove air bubbles. Human microvasular endothelial cells from lung (HMVEC-L, Clonetics/Biowhittaker), were seeded into the macro-wells of the stencil at a density of 5×10^3 cells/cm2 into the dishes in growth medium (EGM, Clonetics/Biowhittaker), and washed with fresh medium after an initial attachment period of 30 minutes to one hour. After an overnight incubation in the membranes, cells were treated with the following microtubule-disrupting agents: nocodazole (10 mg/ml), colchicine (10 mg/ml), vinblastine (10 mg/ml), or paclitaxel (10 mg/ml). Control cells were left untreated. Two different experiments were then performed. In the first experiment, cells were treated with the compounds while maintained within the macro-wells of the stencil. After two hours of treatment, the cells were imaged, the stencil was peeled off, and the cells were fixed with cold methanol (−20° C.) for ten minutes and washed three times with PBS. Immunofluorescence staining was performed using a monoclonal antibody to alpha-tubulin (1:100 dilution, DM1a, Sigma), followed by a FITC-conjugated goat anti-mouse antibody (25 mg/ml, Rockland Immunochemicals) and DAPI (3 mg/ml, Sigma) to stain the nucleus. Stained cells were mounted under a glass coverslip with Fluoromount G (Southern Biotechnology Associates) and imaged in a Zeiss fluorescence microscope.\nIn the second experiment, the stencil was peeled at the time of compound addition. After two hours of treatment, one set of samples was fixed and stained as described above. Another set of samples was left in the treatment compound and imaged over time, to monitor cell motility. Images were taken at 0, 2, 4, 8, and 24 hours. Cell motility was determined by taking the average diameter of the micro-regions, using ImageProPlus imaging software."}, "NIH-3T3 fibroblast cells": {"tested_on": "NIH-3T3 fibroblast cells", "assay": "Cell migration/motility assay, 3T3/TAXOL", "details": "2 hours and 5 hours after removal of first layer, versus control cells", "excerpt": "The cell migration/motility assay of the present invention allows one to study the effect of test agents and others both on cell motility and on cell shape. For example, cells may be patterned through micro-orifices, such as micro-orifices 300, of the first layer 150. The cells are allowed to attach to the support 140 and to grow to confluence. The walls of the micro-orifice 300 constrain the cell(s) and the cells take on the shape of the micro-orifice 300, e.g., circular. A test agent is applied through the micro-orifices 300 and is allowed to contact the cells. The first layer 150 is removed and the cells are observed. If the test agent affects cell movement, the cell will be “stuck” in place as it was patterned and may not change shape, i.e., it will remain circular if the patterning member had circular orifices. […] FIG. 15(b) is a graph of the effect of various concentrations of taxol on cell movement as performed by a cell migration/motility assay of the present invention.\nMacro-wells orifices of a stencil engaged with a support were filled with PBS and a vacuum was applied for two minutes to remove air bubbles. NIH-3T3 fibroblast cells (prelabeled with green cell tracker, CMFDA, Molecular Probes) were collected in DMEM/10% bovine calf serum and plated in the macro-wells at a concentration of 2×10^4 cells/cm2. After one hour, unadhered cells were washed off with fresh medium. […]"}},
  "data": [
    {"compound": "COC(=O)[C@H](CCSC)NC(=O)c1ccc(NC[C@@H](N)CS)cc1-c1ccccc1", "note": "[FTI-277]", "values": [
      {"measurement": "cell migration away from original starting positions", "setting": "[1]", "result": "control cells are shown to have migrated further away from their original starting positions than the cells treated with FTI"},
      {"measurement": "cell migration away from original starting positions", "setting": "[2]", "result": "control cells are shown to have migrated further away from their original starting positions than the cells treated with FTI"}
    ]},
    {"compound": "CNC(=O)[C@H](Cc1c[nH]c2ccccc12)NC(=O)[C@@H](CC(=O)NO)CC(C)C", "note": "[GM6001]", "values": [
      {"measurement": "cell motility", "setting": "[3]", "result": "no effect"},
      {"measurement": "cell motility", "setting": "[4]", "result": "reduces cell motility"}
    ]},
    {"compound": "VEGF", "values": [
      {"measurement": "cell migration", "setting": "endothelial cells", "result": "stimulates cells to migrate"}
    ]},
    {"compound": "CC[C@]1(O)C[C@@H]2CN(CCc3c([nH]c4ccccc34)[C@@](C(=O)OC)(c3cc4c(cc3OC)N(C)[C@H]3[C@@](O)(C(=O)OC)[C@H](OC(C)=O)[C@]5(CC)C=CCN6CC[C@]43[C@@H]65)C2)C1", "note": "[vinblastine]", "values": [
      {"measurement": "cellular movement / achieving circular confluent pattern", "setting": "[5]", "result": "cellular movement arrested"}
    ]},
    {"compound": "COc1cc2c(c(OC)c1OC)-c1ccc(OC)c(=O)cc1[C@@H](NC(C)=O)CC2", "note": "[colchicine]", "values": [
      {"measurement": "cellular movement / achieving circular confluent pattern", "setting": "[5]", "result": "cellular movement arrested"}
    ]},
    {"compound": "CC(=O)O[C@H]1C(=O)[C@@]2(C)[C@H]([C@H](OC(=O)c3ccccc3)[C@]3(O)C[C@H](OC(=O)[C@H](O)[C@@H](NC(=O)c4ccccc4)c4ccccc4)C(C)=C1C3(C)C)[C@]1(OC(C)=O)CO[C@@H]1C[C@@H]2O", "note": "[taxol, paclitaxel]", "values": [
      {"measurement": "cellular movement / achieving circular confluent pattern", "setting": "[5]", "result": "cellular movement arrested"},
      {"measurement": "cell movement away from original pattern", "setting": "NIH-3T3 fibroblast cells", "result": "retained their original circular pattern"}
    ]},
    {"compound": "COC(=O)Nc1nc2ccc(C(=O)c3cccs3)cc2[nH]1", "note": "[nocodazole]", "values": [
      {"measurement": "cellular movement / achieving circular confluent pattern", "setting": "[5]", "result": "cellular movement arrested"}
    ]}
  ]
}
